Data from patent US7476676B2, “Methods for increasing bone formation using inhibitors of glycogen synthase kinase-3β” (Roche Palo Alto LLC, priority 2002, dated 2009).
pIC50: −log10 of the molar value. Read-outs that look alike come from different tables or passages of the source.

Assays:
[1] = biological target: T1, truncated form of recombinant rabbit GSK-3β enzyme (Oryctolagus cuniculus, UniProt G1T8E2); test: Inhibition of Glycogen Synthase Kinase-3β in vitro assay; format: biochemical
T1 construct: The construct was cloned in pGEX-3X vector; fused on or other part: GST at the N-terminus (pGEX-3X vector, purified on glutathione sepharose 4B)
Protocol: The in vitro GSK-3β inhibitory activity of compounds of this invention was determined with a truncated form of recombinant rabbit GSK-3β enzyme.
The construct was cloned in pGEX-3X vector according to the procedure described in Wang, Q. M. et al., J. Biol. Chem. 269, 14566-14574 (1994). Ten amino acids at the N-terminus were deleted to obtain constitutively active GSK-3β ((see Murai H. et al., FEBS Lett. 392,153-60, (1996)). GSK-3β was expressed in BL21 DE3 cells. The cells were grown at 37° C. until they reached mid log phase and then induced with isopropyl-beta-(D)-thiogalactopyranoside (final concentration 0.4 mM) at 30° C. for 2 h. The cells were homogenized and the cell extract was loaded on a glutathione sepharose 4B column. GSK-3β was eluted with glutathione buffer (50 mM Tris pH 8 and 10 mM reduced glutathione). The eluate was collected in 3 minute fractions and assayed for GSK-3β content on a 10% SDS PAGE (polyacrylamide gel electrophoresis). Fractions above 20% peak height were pooled, aliquoted, and stored at −80° C. until used.
ATP (1 μCi), and 2 μl of compounds of this invention in DMSO (various concentrations). 15 μl of GSK-3β (various concentrations) was added and the reaction mixture was incubated at 30° C. for 1 h. The reaction was stopped by transferring 25 μl of the reaction mixture to a phosphocellulose plate containing 130 μl of 1.85% phosphoric acid. The free radionucleotides in the membrane were washed off under vacuum with 1.85% phosphoric acid (5 times). After the last wash, the plate was transferred to an adoptor plate and 50 μl of scintillation cocktail (Microscint-20, Packard, cat. #20-133) was added to each well and the amount of radioactivity was counted in a top counter.

[2] = tested on: Ovalbumin-sensitized Brown-Norway rats; test: Study GSK8 - bone formation in rats treated with Compound II-3; format: in vivo, rat; conditions: twice daily oral gavage Days 6-8 and 13-23, liposome formulation
Protocol: Ovalbumin-sensitized Brown-Norway rats were used. They were sensitized i.p. with 100 μg of OA (ovalbumin) in 0.2 ml alum once every week for three weeks (Day 0, 7 and 14). Seven days after the final sensitization (Day 21), rats were challenged with 1% OA for 45 minutes and euthanized 72 hrs later (day 24). Compound II-3 was given twice daily by oral gavage on Days 6-8 and Days 13-23. Compound was prepared as a liposome formulation—8 mg/ml liposome solution in a liposome composition of 1.44 grams of compound and 54 grams of L-alpha-phosphatidylcholine in 160 ml of sterile water for injection.
Femur samples were decalcified in 10% formic acid, embedded in paraffin, sectioned at five micron thickness and stained with hematoxylin and eosin.

Male Wistar rats = test: Study MT021 - bone formation in rats with Compound II-9; format: in vivo, rat
Protocol: Compound was formulated as a solution in 10% w/v Solutol. Male Wistar rats were dosed by oral gavage, once per day for 14 days at 25, 75 or 150 mg/kg/day and compared to vehicle control (10% Solutol, 10 ml/kg/day). Complete necroscopies were done and the tissues preserved in 10% formalin. Femur, sternum and vertabra were processed and analyzed as described in Example 3.

osteopenic rat model = test: Bone anabolism in the rat (osteopenic rat model; bone mineral density, serum and urine calcium); format: in vivo
Protocol: . Three month old rats are ovariectomized (Ovx) and administered either bovine parathyroid hormone (Amino Acids^1-34) (bPTH in Table) or one of the compounds of the present invention once a day by mouth starting at least 4 weeks post-ovariectomy and continuing until final sacrifice after 3 weeks of daily treatment. Control groups, both sham (rats that were not ovariectomized) and Ovx, received vehicle only. Bovine parathyroid hormone, bPTH, was tested at 40 ug/kg (optimal dose) as an internal positive control for anabolic activity. […] Blood and urine samples were collected at 2-3 weeks after initiation of treatment and the amount of calcium in the serum and urine was determined.
The bone mineral density of the right femur was determined using the High Resolution Software on a QDR-4500W Bone Densitometer™ (Hologic, Waltham, Mass.). The animals were scanned by placing them on a plexiglass block in a supine position such that the right leg was perpendicular to the main body and the tibia was perpendicular to the femur. The increase in the bone mineral density and the amount of calcium in the urine and the serum for the compounds are given in the table below.

[3] = Ovx rats, 30 mg/kg/day by mouth
[4] = Sham (intact) rats, 30 mg/kg/day by mouth
[5] = Ovx rats, 0.04 mg/kg/day, Compound X study
[6] = Ovx rats, 0.04 mg/kg/day, III-2 Ovx study
[7] = Sham (intact) rats, 0.04 mg/kg/day

T1 sequence (G1T8E2 1-432): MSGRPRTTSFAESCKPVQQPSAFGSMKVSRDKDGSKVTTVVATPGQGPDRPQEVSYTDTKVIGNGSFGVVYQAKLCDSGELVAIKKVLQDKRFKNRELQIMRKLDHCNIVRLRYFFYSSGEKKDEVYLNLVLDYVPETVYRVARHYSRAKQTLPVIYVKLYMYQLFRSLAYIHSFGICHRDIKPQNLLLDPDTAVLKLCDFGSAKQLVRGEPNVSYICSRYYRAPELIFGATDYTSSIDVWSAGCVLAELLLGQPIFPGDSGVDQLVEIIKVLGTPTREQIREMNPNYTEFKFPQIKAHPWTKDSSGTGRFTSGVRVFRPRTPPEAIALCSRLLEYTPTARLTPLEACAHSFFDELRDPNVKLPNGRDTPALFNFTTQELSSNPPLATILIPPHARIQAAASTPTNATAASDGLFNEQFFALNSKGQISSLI

Cn1cc(C2=C(c3cccc(NCCCO[Si](C)(C)C(C)(C)C)c3)C(=O)NC2=O)c2ccccc21
melting point: 58 to 65 °C

Cn1cc(C2=C(c3ccccc3OCC(O)CO)C(=O)NC2=O)c2ccccc21 (stereo not shown) [Compound I-1]
melting point: 245 to 247.1 °C

Nc1nc(NCCNc2ncc(-c3ncc[nH]3)c(-c3ccc(Cl)cc3Cl)n2)ccc1[N+](=O)[O-] [Compound X, N^6-{2-[4-(2,4-dichloro-phenyl)-5-(1H-imidazol-2-yl)-pyrimidin-2-ylamino]-ethyl}-3-nitro-pyridine-2,6-diamine, reference compound]
pIC50 ([1]; GSK-3β assay of Biological Example 1): 8.77

Cn1cc(C2=C(c3cccc(OC[C@H](O)CO)c3)C(=O)NC2=O)c2ccccc21 [II-3]
melting point: 177.7 to 178 °C
cancellous bone under the growth plate of the femur (light microscopy) [2]: moderate increases in cancellous bone
pIC50 [1]: 8.49

Cn1cc(C2=C(c3cccc(OCCN4CCOCC4)c3)C(=O)NC2=O)c2ccccc21 [II-4]
melting point: 197.7 to 199 °C

Cl.Cn1cc(C2=C(c3cccc(NCC(O)CO)c3)C(=O)NC2=O)c2ccccc21 (stereo not shown) [II-9]
animals with increased cancellous bone (Male Wistar rats; 25 mg/kg group, oral, 14 days): only one animal
rats with increased new bone formation (Male Wistar rats; 150 mg/kg group, oral, 14 days): Five out of six
cancellous bone (femur, sternum, vertebra) (Male Wistar rats; oral gavage once per day for 14 days at 25, 75 or 150 mg/kg/day): Increased cancellous bone was observed in all groups
melting point: 160 to 163.5 °C
pIC50 [1]: 8.82

Cl.Cn1cc(C2=C(c3cccc(NCC(O)CO)c3)C(=O)NC2=O)c2cc(F)ccc21 (stereo not shown) [III-2]
LUMBAR SPINE % 3 wk BMD Change (osteopenic rat model; [3]): 7.9 ± 1.8%
WHOLE FEMUR % 3 wk BMD Change (osteopenic rat model; [3]): 11.6 ± 0.9%
LUMBAR SPINE % 3 wk BMD Change (osteopenic rat model; [4]): 9.5 ± 1.8%
WHOLE FEMUR % 3 wk BMD Change (osteopenic rat model; [4]): 13.1 ± 1.3%

bPTH: bovine parathyroid hormone (Amino Acids 1-34), internal positive control for anabolic activity
LUMBAR SPINE % 3 wk BMD Change (osteopenic rat model; [5]): 8.6 ± 1.8%
WHOLE FEMUR % 3 wk BMD Change (osteopenic rat model; [5]): 7.0 ± 1.1%
LUMBAR SPINE % 3 wk BMD Change (osteopenic rat model; [6]): 12.2 ± 1.5%
WHOLE FEMUR % 3 wk BMD Change (osteopenic rat model; [6]): 16.6 ± 0.9%
LUMBAR SPINE % 3 wk BMD Change (osteopenic rat model; [7]): 15.7 ± 0.8%
WHOLE FEMUR % 3 wk BMD Change (osteopenic rat model; [7]): 11.7 ± 1.0%
